Data from US5703205A, “Laminin a chain polypeptides from the amino terminal golbular domain” (Regents of the University of Minnesota, priority 1993, dated 1997).

Assays:
Assay type in all cases: cell-based
[1] = system: HT-1080 human fibrosarcoma cells; assay: Direct adhesion of radiolabeled cells to peptide or protein coated microtiter wells; conditions: increasing concentrations adsorbed, up to 5 μg/well; 120 minutes
Procedure: FIG. 3 reports results in microtiter wells adsorbed with increasing concentrations of HPLC-purified peptides R17 (.smallcircle.) R18 (.quadrature.), or R19 (Δ), R20 (.circle-solid.), R32 (.box-solid.), laminin (.tangle-solidup.), or ovalbumin (.diamond.) and radiolabeled HT-1080 human fibrosarcoma cells that were allowed to adhere for 2 hours after being released from flasks with EDTA/trypsin. Each value represents the mean of four separate determinations, and the SEM was less than 10% in each case.
The direct adhesion of cells to protein or peptide coated surfaces was performed as described in Skubitz et al., Exp. Cell Res., 173, 349-360 (1987) and Charonis et al., supra (1988). Briefly, radiolabeled cells were added to 96-well microtiter plates coated with various concentrations of synthetic peptides, laminin, or BSA (0.02 μg/well-50 μg/well from 50 μl solutions) for various lengths of time. After the incubation period, loosely or nonadherent cells were removed by washing the wells three times. Adherent cells weresolubilized and quantitated in a scintillation counter. […] The solubilized cells were then quantitated using a liquid scintillation counter.
In this case, increasing concentrations of the five synthetic peptides were adsorbed to microtiter wells. Radiolabeled HT-1080 human fibrosarcoma cells were incubated in the wells for 120 minutes and the adhesion of cells was quantitated. […]

[2] = system: HT-1080 human fibrosarcoma cells; assay: Cell spreading assay on coated surfaces; conditions: for Cells Spread (%) / Surface Area Occupied by a Cell: wells coated with 300 μl at 100 μg/ml, 2 1/2 hour incubation
Procedure: Spreading of the adherent cells was evaluated by performing adhesion assays similar to those described above. Twenty-four well tissue culture plates (Becton Dickinson and Co., Lincoln Park, N.J.) were coated with 300 μl of laminin, synthetic peptides, or BSA at 100 μg/ml, then blocked with 2 mg/ml BSA in PBS. Three hundred microliters of a cell suspension at 5×10^4 cells/ml was added to each well, and after a 21/2 hour incubation, nonadherent cells were aspirated out of the wells. Adherent cells were fixed with 2% glutaraldehyde in PBS at 23° C. for one hour. The glutaraldehyde was then removed and the cells were stained by two different techniques. For photographic purposes, the cells were stained with Diff-Quik Solution I (American Scientific Products, McGaw Park, Ill.) for 10 minutes at 23° C. Solution I was removed, then Diff-Quik Solution II was added and the cells were stained for another 10 minutes at 23° C. Wells were washed with PBS, then representative cells were photographed with a Nikon DIAPHOT inverted phase microscope using Panatomic X Film ASA32 (Eastman Kodak, Rochester, N.Y.). Adherent cells to be quantitated for spreading were stained overnight at 23° C. with 500 μl of a solution containing 0.12% (w/v) Coomassie Brilliant Blue R (Sigma Chemical Co.), 5% (v/v) acetic acid, and 50% (v/v) ethanol. Wells were washed three times with 500 μl of PBS and cell spreading was then quantitated by measuring the average surface area occupied by a cell using an Opti-Max Image Analyzer. Thirty cells were measured per well; each experiment was done in quadruplicate and repeated three times. Cells spread the best on peptide R17 and R18 and occupy an area of ~30% of that seen for cells on laminin-coated surfaces. On surfaces coated with peptides R19, R20, and R32, less cell spreading was observed; cells occupied an area ~20% of that seen on intact laminin. Cell spreading on ovalbumin (negative control) was less than 10% of that seen on laminin but the cells were barely adherent under these last conditions.

[3] = system: human colon carcinoma (K12C); assay: Direct cell adhesion to coated surfaces (Table II); conditions: wells coated with 5 μg, 2 hours, % of total cells added
From the text: (§1) The human fibrosarcoma HT-1080 cell line was obtained from the ATCC. The murine melanoma K-1735-C10 (low metastatic) and K-1735-M4 (high metastatic) cell lines, murine UV-2237-MM fibrosarcoma cell line, human renal carcinoma SN12 PM-6 (high metastatic) cell line, and human colon carcinoma KM12 C (low metastatic) and KM12 SM (high metastatic) cell lines were originally provided by Dr. I. J. Fidler (M.D., Anderson Hospital, University of Texas Health Sciences Center, Houston, Tex.). The MM fibrosarcoma cell line was maintained in DME (GIBCO Laboratories, Grand Island, N.Y.) containing 10% FBS, the murine melanomas were maintained in DMEM containing 10% calf serum, the human fibrosarcoma cells were maintained in EMEM containing 10% heat inactivated FBS, and the human renal and colon carcinoma cells were grown in EMEM containing 10% FBS, vitamins, and 1 mM sodium pyruvate. Cells were passaged for 4 to 5 weeks and then replaced from frozen stocks of early passage cells to minimize phenotypic drift. Cells were maintained at 37° C. in a humidified incubator containing 5% CO2.
(§2) The direct adhesion of cells to protein or peptide coated surfaces was performed as described in Skubitz et al., Exp. Cell Res., 173, 349-360 (1987) and Charonis et al., supra (1988). Briefly, radiolabeled cells were added to 96-well microtiter plates coated with various concentrations of synthetic peptides, laminin, or BSA (0.02 μg/well-50 μg/well from 50 μl solutions) for various lengths of time. After the incubation period, loosely or nonadherent cells were removed by washing the wells three times. Adherent cells weresolubilized and quantitated in a scintillation counter. More specifically, cultures of cells which were 60-80% confluent were metabolically labeled for 24 hours with the addition of 3 μCi/ml of ^3 H-td (tritiated thymidine). On the day of the assay, the cells were harvested by trypsinization, the trypsin was inhibited by the addition of serum, and the cells were washed free of this mixture and resuspended in DMEM buffered with HEPES at pH 7.2. The adhesion medium also contained 2 mg/ml BSA. The cells were adjusted to a concentration of 3-4×10^4/ ml, and 100 μl of this cell suspension was added to the wells. The assay mixture was then incubated at 37° C. for 120 minutes. At the end of the incubation, the wells were washed with warm DMEM/Hepes containing 2 mg/ml BSA, and the adherent population was solubilized with 0.5N NaOH contained 1% SDS. The solubilized cells were then quantitated using a liquid scintillation counter.
(§3) Microtiter wells were adsorbed with peptide R18, laminin, or BSA and a variety of tumor cell lines were tested for the ability to adhere to the ligands. The six different tumor cell lines selected for this study were of murine or human origin and, in most cases, of either high or low metastatic capacity. As reported in Table II, peptide R18 was also capable of promoting the adhesion of all six cell lines.
(§4) *Microtiter wells were coated with 5 μg of the peptide or proteins and […]

[4] = system: human colon carcinoma (KI2SM); assay: Direct cell adhesion to coated surfaces (Table II); conditions: wells coated with 5 μg, 2 hours, % of total cells added
From the text: as §1, §2, §3, §4

[5] = system: human renal carcinoma (SN12 PM6); assay: Direct cell adhesion to coated surfaces (Table II); conditions: wells coated with 5 μg, 2 hours, % of total cells added
From the text: as §1, §2, §3, §4

murine fibrosarcoma (MM) = assay: Direct cell adhesion to coated surfaces (Table II); conditions: wells coated with 5 μg, 2 hours, % of total cells added
From the text: as §1, §2, §3, §4

murine melanoma (C10) = assay: Direct cell adhesion to coated surfaces (Table II); conditions: wells coated with 5 μg, 2 hours, % of total cells added
From the text: as §1, §2, §3, §4

murine melanoma (M4) = assay: Direct cell adhesion to coated surfaces (Table II); conditions: wells coated with 5 μg, 2 hours, % of total cells added
From the text: as §1, §2, §3, §4

Ovalbumin: negative control protein
cell adhesion to coated wells (in words) [1]: no cell adhesion was observed | area occupied by cells relative to that on laminin-coated surfaces ([2]; HT-1080 cell spreading, relative to intact laminin): less than 10% | Cells Spread (%) [2]: 0% | Surface Area Occupied by a Cell [2]: 71 ± 41 um^2

Laminin
Cell Adhesion (%) to Coated Surfaces [3]: 25% | Cell Adhesion (%) to Coated Surfaces [4]: 36% | Cell Adhesion (%) to Coated Surfaces [5]: 40% | Cell Adhesion (%) to Coated Surfaces (murine fibrosarcoma (MM)): 43% | Cell Adhesion (%) to Coated Surfaces (murine melanoma (C10)): 80% | Cell Adhesion (%) to Coated Surfaces (murine melanoma (M4)): 50% | Cells Spread (%) [2]: 95% | Surface Area Occupied by a Cell [2]: 611 ± 79 um^2
